# Assay results reported in patent publication US11331364B2, “Use for JNK inhibitor molecules for treatment of various diseases” (Xigen Inflammation Ltd., priority 2014, dated 2022).
# Square brackets hold non-standard residues; d marks the D form. Peptide text beside a SMILES is read from it.
# Columns and labels:
# [1] = system: experimental renal ischemia/reperfusion in rats; assay: Renal ischemia/reperfusion (clamping both renal pedicles 40 min), Wistar rats; type: in vivo, rat; details: 2 mg/kg IV one hour after clamping; 24 h following ischemia
# Description: Renal ischemia will be induced by clamping both renal pedicles with atraumatic clamp (induction of necropathy). One unique dose of the JNK inhibitor of SEQ ID NO: 172 (2000 μg/kg) will be administered intravenously (IV) into the tail vein on Day 0, one hour after clamping period (after reperfusion) both renal pedicles with atraumatic clamp. The administration volume will be 2 ml/kg. Heparin (5000 IU/kg) will be administered intraperitoneally 1 hour before clamping.
# Each day, the general behavior and the appearance of all animals is observed. […] For the evaluation of the renal function, serum creatinine ([…]) or urea concentrations (mmol/mL) are measured with the appropriate kits (Bayer Healthcare AG, Leverkusen, Germany). […]
# Twenty-six (26) male Wistar rats (age 5-6 weeks) were used in this study (divided into 2 groups of 10 rats and 1 group of 6 rats). […] The health of the animals was monitored (moribund animals, abnormal important loss of weight, major intolerance of the substance, etc. . . . ). […]
# For evaluation of renal function, blood was collected from the tail vein at 24 hours after reperfusion. Serum creatinine ([…]) and urea concentrations (mmol/mL) were measured using appropriate kits (Bayer Healthcare AG, Leverkusen, Germany). […]
# JNK = JNK and c-Jun activation after Aβ42 stress in PKR−/− primary cortical neurons; type: cell-based, mouse; details: 10 μM, 2 μM Aβ42
# Description: To obtain primary cortical neuronal cultures, E15.5 mice embryos were dissected in PBS (Phosphate Buffered Saline) 6% glucose, on ice. Embryos cortices were minced into small pieces and treated with PBS glucose trypsin (Sigma Aldrich, Saint-Louis, USA) for 20 min at 37° C. Dissociated cortical cells were cultured in Neurobasal media complemented with B27, Glutamax and penicillin-streptomycin (Gibco). Neurons were cultured at 37° C., 5% CO2 on pre-coated with poly-L-lysin (Sigma Aldrich) petri dishes. Neurons were cultured to maturity (7 days) before use.
# To induce […] stress 2 μM of Aβ1-42 (Thermo Fisher Scientific, Mass., USA) were used during 5 h on cortical neurons. Aβ42-1 inversed peptide (Thermo Fisher Scientific) was used as negative control. AP 1-42 and Aβ42-1 were dissolved in pure water and incubated at 37° C. for 48 h before use.
# To inhibit JNK, cortical neurons were pre-treated with 10 μM of XG-104 1 h before cell-stress treatment.
# For immunoblot analysis cells were lysed on ice in a lysis buffer containing […] NaPi pH 7.8, […] NaCl, 1% Triton, 0.5% DOC, 0.1% SDS, 10% glycerol, 0.1 μM calyculin A, 1 mM Na3VO4 and 1× of a protease inhibitor cocktail (Sigma Aldrich). Lysates were sonicated and centrifugated 10 min at 15000 g at 4° C. The supernatant protein concentration was determined with the Micro BCA protein assay kit (Thermo Scientific). Thirty micrograms of proteins were resolved on SDS-PAGE and transferred onto nitrocellulose membrane. After blocking with TBS 5% skim milk, the membranes were probed with primary antibodies to JNK full, c-Jun, PKR, eIF2α (Santa Cruz, Danvers, USA), pJNK (Millipore, Billerica, USA), phosphor eIF2a (Thermo Fisher Scientific), PARP and tubulin (Cell Signaling, Danvers, USA). IR Dyes 800 and 700 (Rockland Immunochemical Inc, Gilbertsville, USA) antibodies were used as secondary antibodies. Blots were reveled with Odyssey imaging system (LI-COR Biosciences, Lincoln, USA).
# hJNK1 = target: T1, hJNK1 (Homo sapiens, UniProt P45983); assay: hJNK1 | IC50; details: read-out: hJNK1 | IC50
# T1 construct: His; purchased Upstate 14-327
# T1 sequence (P45983 whole entry, looked up): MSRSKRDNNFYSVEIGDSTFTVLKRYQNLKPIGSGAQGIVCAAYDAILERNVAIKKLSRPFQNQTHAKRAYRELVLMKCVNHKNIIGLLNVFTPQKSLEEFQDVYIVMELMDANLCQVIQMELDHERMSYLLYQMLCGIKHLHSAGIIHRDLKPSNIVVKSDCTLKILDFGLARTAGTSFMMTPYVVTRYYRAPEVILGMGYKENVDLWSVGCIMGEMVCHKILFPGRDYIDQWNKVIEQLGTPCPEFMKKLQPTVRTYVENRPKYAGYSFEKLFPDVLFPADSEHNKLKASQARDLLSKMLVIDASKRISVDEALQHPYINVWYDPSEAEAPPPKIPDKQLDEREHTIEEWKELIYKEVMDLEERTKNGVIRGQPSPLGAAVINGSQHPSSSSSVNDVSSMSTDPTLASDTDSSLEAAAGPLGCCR
smiles,measurement,setting,value
"CC(C)C[C@H](NC(=O)[C@H](CC(N)=O)NC(=O)[C@H](CC(C)C)NC(=O)[C@@H](NC(=O)[C@@H](C)NC(=O)[C@@H]1CCCN1C(=O)[C@H](CCCNC(=N)N)NC(=O)[C@@H](CCCCN)NC(=O)[C@@H]1CCCN1C(=O)[C@H](CCCNC(=N)N)NC(=O)[C@@H](CCCNC(=N)N)NC(=O)[C@H](CCCNC(=N)N)NC(=O)[C@H](CCCNC(=N)N)NC(=O)[C@H](CCC(N)=O)NC(=O)[C@@H](CCCNC(=N)N)NC(=O)[C@H](CCCNC(=N)N)NC(=O)[C@H](CCCCN)NC(=O)[C@H](CCCCN)NC(=O)[C@H](N)CCCNC(=N)N)[C@@H](C)O)C(=O)N[C@H](Cc1ccccc1)C(N)=O [SEQ ID NO: 172, rKKRrQRRrRPkRPaTLNLf] (H-[dR]KKR[dR]QRR[dR]RP[dK]RP[dA]TLNL[dF]-NH2; N-terminus assumed)",serum creatinine relative to untreated ischemic rats,[1],lower serum creatinine
same,urea relative to untreated ischemic rats,[1],lower urea
same,c-Jun activation,JNK; PKR−/− cultures,does not modify c-Jun activation
same,decrease of c-Jun protein expression,JNK; PKR−/− cultures,62%
same,JNK activation,JNK; PKR−/− neurons,−60%
same,IC50,hJNK1,722 nM
